This is an account of results in patent US20130143915A1, “TRIAZOLOPYRIDINES AS TYK2 INHIBITORS” (CELLZOME LIMITED, priority 2010, published 2013).

Assay [1] deals with T1, JAK2 (Homo sapiens, UniProt O60674).
T1 construct: endogenous in cells; host or cells: mixed Molt4/Ramos cell lysate (1:2)
The experiment in a line: Kinobeads assay, JAK2 (competition binding in mixed Molt4/Ramos cell lysate, dot blot detection). Here is the method: (§1) The compounds of the present invention as described in the previous examples were tested in a Kinobeads™ assay as described for ZAP-70 (WO-A 2007/137867). Briefly, test compounds (at various concentrations) and the affinity matrix with the immobilized aminopyrido-pyrimidine ligand 24 were added to cell lysate aliquots and allowed to bind to the proteins in the lysate sample. After the incubation time the beads with captured proteins were separated from the lysate. Bound proteins were then eluted and the presence of TYK2 and JAK2 was detected and quantified using specific antibodies in a dot blot procedure and the Odyssey infrared detection system. Dose response curves for individual kinases were generated and IC50 values calculated. Kinobeads™ assays have been previously described (WO-A 2007/137867; WO-A 2006/134056).
(§2) The affinity matrix was washed two times with 15 mL of 1×DP buffer containing 0.2% NP40 (IGEPAL® CA-630, Sigma, #13021) and then resuspended in 1×DP buffer containing 0.2% NP40 (3% beads slurry).
(§3) 5×DP buffer: 250 mM Tris-HCl pH 7.4, 25% Glycerol, 7.5 mM MgCl2, 750 mM NaCl, 5 mM Na3VO4; filter the 5×DP buffer through a 0.22 μm filter and store in aliquots at −80° C. The 5×DP buffer is diluted with H2O to 1×DP buffer containing 1 mM DTT and 25 mM NaF.
(§4) Stock solutions of test compounds were prepared in DMSO. In a 96 well plate 30 μL solution of diluted test compounds at 5 mM in DMSO were prepared. Starting with this solution a 1:3 dilution series (9 steps) was prepared. For control experiments (no test compound) a buffer containing 2% DMSO was used.
(§5) Molt4 cells (ATCC catalogue number CRL-1582) and Ramos cells (ATCC catalogue number CRL-1596) were grown in 1 L Spinner flasks (Integra Biosciences, #182101) in suspension in RPMI 1640 medium (Invitrogen, #21875-034) supplemented with 10% Fetal Bovine Serum (Invitrogen) at a density between 0.15×10^6 and 1.2×10^6 cells/mL. Cells were harvested by centrifugation, washed once with 1×PBS buffer (Invitrogen, #14190-094) and cell pellets were frozen in liquid nitrogen and subsequently stored at −80° C. Cells were homogenized in a Potter S homogenizer in lysis buffer: 50 mM Tris-HCl, 0.8% NP40, 5% glycerol, 150 mM NaCl, 1.5 mM MgCl2, 25 mM NaF, 1 mM sodium vanadate, 1 mM DTT, pH 7.5. One complete EDTA-free tablet (protease inhibitor cocktail, Roche Diagnostics, 1873580) per 25 mL buffer was added. The material was dounced 10 times using a mechanized POTTER S, transferred to 50 mL falcon tubes, incubated for 30 minutes on ice and spun down for 10 minutes at 20,000 g at 4° C. (10,000 rpm in Sorvall SLA600, precooled). The supernatant was transferred to an ultracentrifuge (UZ)-polycarbonate tube (Beckmann, 355654) and spun for 1 hour at 100.000 g at 4° C. (33.500 rpm in Ti50.2, precooled). The supernatant was transferred again to a fresh 50 mL falcon tube, the protein concentration was determined by a Bradford assay (BioRad) and samples containing 50 mg of protein per aliquot were prepared. The samples were immediately used for experiments or frozen in liquid nitrogen and stored frozen at −80° C.
(§6) Cell lysate (approximately 50 mg protein per plate) was thawed in a water bath at room temperature and then stored on ice. To the thawed cell lysate 1×DP 0.8% NP40 buffer containing protease inhibitors (1 tablet for 25 mL buffer; EDTA-free protease inhibitor cocktail; Roche Diagnostics 1873580) was added in order to reach a final protein concentration of 10 mg/mL total protein. The diluted cell lysate was stored on ice. Mixed Molt4/Ramos lysate was prepared by combining one volume of Molt4 lysate and two volumes of Ramos lysate (ratio 1:2).
(§7) To a 96 well filter plate (Multiscreen HTS, BV Filter Plates, Millipore #MSBVN1250) were
(§8) added per well: 100 μL affinity matrix (3% beads slurry), 3 μL of compound solution, and 50 μL of diluted lysate. Plates were sealed and incubated for 3 hours in a cold room on a plate shaker (Heidolph tiramax 1000) at 750 rpm. […]

Assay [2] deals with T2, TYK2 (Homo sapiens, UniProt P29597).
T2 construct: endogenous in cells; host or cells: mixed Molt4/Ramos cell lysate (1:2)
T2 sequence (P29597 whole entry): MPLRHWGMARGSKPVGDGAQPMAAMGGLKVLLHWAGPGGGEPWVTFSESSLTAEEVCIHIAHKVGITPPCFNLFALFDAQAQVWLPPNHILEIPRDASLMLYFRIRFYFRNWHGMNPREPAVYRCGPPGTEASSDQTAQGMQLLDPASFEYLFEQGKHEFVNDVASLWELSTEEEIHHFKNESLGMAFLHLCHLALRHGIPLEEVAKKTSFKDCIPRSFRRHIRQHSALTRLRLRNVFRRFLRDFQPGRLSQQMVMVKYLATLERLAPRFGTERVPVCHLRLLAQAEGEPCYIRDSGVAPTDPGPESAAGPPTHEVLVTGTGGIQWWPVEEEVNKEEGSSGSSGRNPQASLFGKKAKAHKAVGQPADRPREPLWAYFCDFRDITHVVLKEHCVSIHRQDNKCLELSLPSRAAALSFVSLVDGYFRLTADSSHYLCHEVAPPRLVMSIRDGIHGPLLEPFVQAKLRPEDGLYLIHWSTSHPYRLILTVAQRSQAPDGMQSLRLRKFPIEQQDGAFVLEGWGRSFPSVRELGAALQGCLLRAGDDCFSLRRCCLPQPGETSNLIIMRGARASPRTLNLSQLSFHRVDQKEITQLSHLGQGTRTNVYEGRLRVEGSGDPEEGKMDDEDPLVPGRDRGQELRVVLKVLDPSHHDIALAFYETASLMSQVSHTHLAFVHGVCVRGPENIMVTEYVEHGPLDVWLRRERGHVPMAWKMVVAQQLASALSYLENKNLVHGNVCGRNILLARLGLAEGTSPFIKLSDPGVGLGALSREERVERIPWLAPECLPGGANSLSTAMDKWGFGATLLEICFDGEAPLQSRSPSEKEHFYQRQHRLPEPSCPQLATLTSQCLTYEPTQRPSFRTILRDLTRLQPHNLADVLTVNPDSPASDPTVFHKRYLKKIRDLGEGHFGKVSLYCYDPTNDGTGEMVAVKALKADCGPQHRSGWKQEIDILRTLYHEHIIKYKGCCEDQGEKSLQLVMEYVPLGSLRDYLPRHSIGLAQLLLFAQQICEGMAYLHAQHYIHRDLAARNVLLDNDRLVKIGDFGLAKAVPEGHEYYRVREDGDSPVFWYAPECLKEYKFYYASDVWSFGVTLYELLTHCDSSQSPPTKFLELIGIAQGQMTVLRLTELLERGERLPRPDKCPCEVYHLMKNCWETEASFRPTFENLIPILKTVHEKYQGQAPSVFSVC
As to the kind of experiment: Kinobeads assay, TYK2 (competition binding in mixed Molt4/Ramos cell lysate, dot blot detection). As to the method:
as §1, §2, §3, §4, §5, §6, §7, §8

Molecules are shown by their SMILES. Bounds are passed on as bounds.

T1 sequence (O60674 whole entry): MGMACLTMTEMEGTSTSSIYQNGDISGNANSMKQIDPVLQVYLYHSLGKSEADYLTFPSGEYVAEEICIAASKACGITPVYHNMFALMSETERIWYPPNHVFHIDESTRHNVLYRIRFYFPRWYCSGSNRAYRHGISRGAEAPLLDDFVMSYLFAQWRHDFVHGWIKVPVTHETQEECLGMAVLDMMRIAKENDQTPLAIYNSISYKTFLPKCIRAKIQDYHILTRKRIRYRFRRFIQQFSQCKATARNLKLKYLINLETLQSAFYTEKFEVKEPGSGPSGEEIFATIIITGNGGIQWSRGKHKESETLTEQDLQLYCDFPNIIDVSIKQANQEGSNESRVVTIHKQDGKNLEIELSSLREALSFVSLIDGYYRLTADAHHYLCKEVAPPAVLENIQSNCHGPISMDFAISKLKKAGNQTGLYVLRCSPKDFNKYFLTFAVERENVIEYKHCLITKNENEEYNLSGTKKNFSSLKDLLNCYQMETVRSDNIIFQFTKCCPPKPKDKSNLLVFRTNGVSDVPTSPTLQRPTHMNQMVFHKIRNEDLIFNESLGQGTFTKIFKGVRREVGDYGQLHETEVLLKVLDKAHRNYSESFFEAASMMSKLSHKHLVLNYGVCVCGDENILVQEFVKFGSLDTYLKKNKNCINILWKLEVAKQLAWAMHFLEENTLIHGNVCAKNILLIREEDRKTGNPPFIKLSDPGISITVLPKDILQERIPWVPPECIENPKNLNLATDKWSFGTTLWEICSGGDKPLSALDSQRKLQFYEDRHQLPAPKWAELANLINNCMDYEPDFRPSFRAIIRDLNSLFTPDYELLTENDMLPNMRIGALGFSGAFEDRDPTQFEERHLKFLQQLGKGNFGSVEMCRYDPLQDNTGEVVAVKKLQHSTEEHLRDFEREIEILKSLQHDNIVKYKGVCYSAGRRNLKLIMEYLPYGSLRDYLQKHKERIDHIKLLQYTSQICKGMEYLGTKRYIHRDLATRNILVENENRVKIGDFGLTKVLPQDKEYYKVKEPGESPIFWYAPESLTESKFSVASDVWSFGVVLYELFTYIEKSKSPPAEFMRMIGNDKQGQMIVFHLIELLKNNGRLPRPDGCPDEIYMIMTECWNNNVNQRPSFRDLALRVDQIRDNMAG

In general, IC50 refers to the point on the concentration scale where inhibition reaches its midpoint. The low end stands for higher potency, the high end for lower potency. On to `COc1ccc(-c2cccc3nc(NC(=O)C4CC4)nn23)c(F)c1` [Example 1, N-(5-(2-fluoro-4-methoxyphenyl)-[1,2,4]triazolo[1,5-a]pyridin-2-yl)cyclopropane carboxamide], for which the IC50 in assay [1] is greater than 10000 nM; in assay [2], 100 to 1000 nM.
In the same order, the values of `O=C(Nc1nc2cccc(-c3ccc(Cl)cc3Cl)n2n1)C1CC1` [Example 2, N-(5-(2,4-dichlorophenyl)-[1,2,4]triazolo[1,5-a]pyridin-2-yl)cyclopropanecarboxamide] are greater than 10000 nM and 100 to 1000 nM.
On the same counts, the results for `COc1ccc(-c2cccc3nc(NC(=O)C4CC4)nn23)c(C(F)(F)F)c1` [Example 3, N-(5-(4-methoxy-2-(trifluoromethyl)phenyl)-[1,2,4]triazolo[1,5-a]pyridin-2-yl)cyclopropanecarboxamide] are greater than 10000 nM and 1000 to 10000 nM.
In the same order, the values of `COc1ccc(-c2cccc3nc(NC(=O)C4CC4)nn23)c(Cl)c1` [Example 4, N-(5-(2-chloro-4-methoxyphenyl)-[1,2,4]triazolo[1,5-a]pyridin-2-yl)cyclopropanecarboxamide] are greater than 10000 nM and 100 to 1000 nM.
With `CS(=O)(=O)c1ccc(-c2cccc3nc(NC(=O)C4CC4)nn23)c(F)c1` [Example 5, N-(5-(2-fluoro-4-(methylsulfonyl)phenyl)-[1,2,4]triazolo[1,5-a]pyridin-2-yl)cyclopropanecarboxamide], the IC50 in assay [1] is greater than 10000 nM; in assay [2], 100 to 1000 nM.
In the case of `Nc1ccc(-c2cccc3nc(NC(=O)C4CC4)nn23)c(Cl)c1` [Example 6, N-(5-(4-amino-2-chlorophenyl)-[1,2,4]triazolo[1,5-a]pyridin-2-yl)cyclopropanecarboxamide], the IC50 in assay [1] was greater than 10000 nM; in assay [2], 100 to 1000 nM.
In the same order, the values of `Nc1ccc(-c2cccc3nc(NC(=O)C4CC4)nn23)c(F)c1` [Example 7, N-(5-(4-amino-2-fluorophenyl)-[1,2,4]triazolo[1,5-a]pyridin-2-yl)cyclopropanecarboxamide] are greater than 10000 nM and 100 to 1000 nM.
On the same counts, the results for `CS(=O)(=O)Nc1ccc(-c2cccc3nc(NC(=O)C4CC4)nn23)c(Cl)c1` [Example 8, N-(5-(2-chloro-4-(methylsulfonamido)phenyl)-[1,2,4]triazolo[1,5-a]pyridin-2-yl)cyclopropanecarboxamide] are greater than 10000 nM and 100 to 1000 nM.
With `CS(=O)(=O)Nc1ccc(-c2cccc3nc(NC(=O)C4CC4)nn23)c(F)c1` [Example 9, N-(5-(2-fluoro-4-(methylsulfonamido)phenyl)-[1,2,4]triazolo[1,5-a]pyridin-2-yl)cyclopropanecarboxamide], the IC50 in assay [1] was greater than 10000 nM; in assay [2], 100 to 1000 nM.
On to `COc1ccc(-c2cccc3nc(NC(=O)C4CC4)nn23)c(C)c1` [Example 10, N-(5-(4-methoxy-2-methylphenyl)-[1,2,4]triazolo[1,5-a]pyridin-2-yl)cyclopropanecarboxamide], for which the IC50 in assay [1] was greater than 10000 nM; in assay [2], 100 to 1000 nM.
For the compound `O=C(Nc1nc2cccc(-c3ccc(NS(=O)(=O)C4CC4)cc3Cl)n2n1)C1CC1` [Example 11], the IC50 in assay [1] was greater than 10000 nM; in assay [2], less than 100 nM.
For the compound `Cc1ccc(-c2cccc3nc(NC(=O)C4CC4)nn23)c(C)c1` [Example 12, N-(5-(2,4-dimethylphenyl)-[1,2,4]triazolo[1,5-a]pyridin-2-yl)cyclopropanecarboxamide], the IC50 is greater than 10000 nM in assay [1] and 100 to 1000 nM in assay [2].
